Measured values reported in ChEMBL document CHEMBL5335856, “Structurally Diverse Alkaloids with Anti-Renal-Fibrosis Activity from the Centipede Scolopendra subspinipes mutilans” (J Nat Prod, 2024).
Activity calls are given as the source filed them. The rule behind the calls is not given here.

What was measured:
RAW264.7 [1] = test: Antiinflammatory activity against LPS-induced mouse RAW264.7 cells assessed as reduction in iNOS protein level at 20 uM; type: functional, cell-based
RAW264.7 [2] = test: Antiinflammatory activity against LPS-induced mouse RAW264.7 cells assessed as reduction in COX-2 protein level at 20 uM; type: functional, cell-based
NRK-52E [3] = test: Anti-renal-fibrosis activity in TGF-beta1 induced rat NRK-52E cells assessed as downregulation of collagen I protein level at 20 uM by Western blot analysis; type: functional, cell-based
NRK-52E [4] = test: Anti-renal-fibrosis activity in TGF-beta1 induced rat NRK-52E cells assessed as downregulation of alpha-SMA protein level at 20 uM by Western blot analysis; type: functional, cell-based
NRK-52E [5] = test: Anti-renal-fibrosis activity in TGF-beta1 induced rat NRK-52E cells assessed as downregulation of alpha-SMA protein level by Western blot analysis; type: functional, cell-based; conditions: dose 5-40 µM
NRK-52E [6] = test: Cytotoxicity against rat NRK-52E cells at 10 to 80 uM incubated for 48 hrs by CCK-8 assay; type: toxicity, cell-based; conditions: dose 10-80 µM
NRK-52E [7] = test: Anti-renal-fibrosis activity in TGF-beta1 induced Lamp2 knocked down rat NRK-52E cells assessed as downregulation of collagen I expression at 40 uM; type: functional, cell-based
NRK-52E [8] = test: Anti-renal-fibrosis activity in TGF-beta1 induced Lamp2 knocked down rat NRK-52E cells assessed as downregulation of alpha-SMA expression at 40 uM; type: functional, cell-based
[9] = molecular target: Protein YIF1A (Homo sapiens) (UniProt O95070); test: Binding affinity to Yif1a (unknown origin) at 200 uM preincubated for 2 hrs followed by pronase addition and measured after 30 mins by coomassie blue staining based SDS-PAGE gel analysis
[10] = molecular target: ATP-dependent RNA helicase DHX8 (Homo sapiens) (UniProt Q14562); test: Binding affinity to Dhx8 (unknown origin) at 200 uM preincubated for 2 hrs followed by pronase addition and measured after 30 mins by coomassie blue staining based SDS-PAGE gel analysis
Sequence of ATP-dependent RNA helicase DHX8 (Homo sapiens) (Q14562 whole entry): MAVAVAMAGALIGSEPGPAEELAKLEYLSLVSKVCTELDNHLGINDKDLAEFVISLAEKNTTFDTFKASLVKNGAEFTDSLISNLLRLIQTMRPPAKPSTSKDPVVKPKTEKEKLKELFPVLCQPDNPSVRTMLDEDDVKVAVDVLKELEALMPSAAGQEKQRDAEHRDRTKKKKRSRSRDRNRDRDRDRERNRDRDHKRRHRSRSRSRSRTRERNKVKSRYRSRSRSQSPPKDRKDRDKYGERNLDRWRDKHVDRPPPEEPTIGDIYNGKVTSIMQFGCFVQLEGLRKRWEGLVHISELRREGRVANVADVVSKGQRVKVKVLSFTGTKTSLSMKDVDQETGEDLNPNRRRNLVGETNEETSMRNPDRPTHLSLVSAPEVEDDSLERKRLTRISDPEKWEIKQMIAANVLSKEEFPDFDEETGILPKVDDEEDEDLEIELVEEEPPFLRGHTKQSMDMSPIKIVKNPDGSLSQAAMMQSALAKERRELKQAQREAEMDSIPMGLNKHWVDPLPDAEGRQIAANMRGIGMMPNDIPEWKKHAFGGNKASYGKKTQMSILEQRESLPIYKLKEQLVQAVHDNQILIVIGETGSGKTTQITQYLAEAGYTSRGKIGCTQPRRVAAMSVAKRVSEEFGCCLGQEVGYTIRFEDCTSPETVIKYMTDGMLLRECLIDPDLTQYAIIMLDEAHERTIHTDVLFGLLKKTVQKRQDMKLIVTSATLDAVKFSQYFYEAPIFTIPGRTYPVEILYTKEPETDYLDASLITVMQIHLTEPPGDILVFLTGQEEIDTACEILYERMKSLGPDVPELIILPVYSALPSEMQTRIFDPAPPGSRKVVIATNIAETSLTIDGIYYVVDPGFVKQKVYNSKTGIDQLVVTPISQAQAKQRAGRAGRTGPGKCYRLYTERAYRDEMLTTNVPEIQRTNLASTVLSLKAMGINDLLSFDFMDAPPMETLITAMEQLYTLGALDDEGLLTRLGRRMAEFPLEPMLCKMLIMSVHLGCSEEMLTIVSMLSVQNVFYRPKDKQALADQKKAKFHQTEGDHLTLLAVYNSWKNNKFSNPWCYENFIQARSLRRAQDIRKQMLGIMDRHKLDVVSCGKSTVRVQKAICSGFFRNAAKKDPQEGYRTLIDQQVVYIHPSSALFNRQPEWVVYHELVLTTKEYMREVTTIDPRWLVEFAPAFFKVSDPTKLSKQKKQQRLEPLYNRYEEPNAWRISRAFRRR

[11] = molecular target: Transcription initiation factor TFIID subunit 6 (Homo sapiens) (UniProt P49848); test: Binding affinity to Taf6 (unknown origin) at 200 uM preincubated for 2 hrs followed by pronase addition and measured after 30 mins by coomassie blue staining based SDS-PAGE gel analysis
Sequence of Transcription initiation factor TFIID subunit 6 (Homo sapiens) (P49848 whole entry): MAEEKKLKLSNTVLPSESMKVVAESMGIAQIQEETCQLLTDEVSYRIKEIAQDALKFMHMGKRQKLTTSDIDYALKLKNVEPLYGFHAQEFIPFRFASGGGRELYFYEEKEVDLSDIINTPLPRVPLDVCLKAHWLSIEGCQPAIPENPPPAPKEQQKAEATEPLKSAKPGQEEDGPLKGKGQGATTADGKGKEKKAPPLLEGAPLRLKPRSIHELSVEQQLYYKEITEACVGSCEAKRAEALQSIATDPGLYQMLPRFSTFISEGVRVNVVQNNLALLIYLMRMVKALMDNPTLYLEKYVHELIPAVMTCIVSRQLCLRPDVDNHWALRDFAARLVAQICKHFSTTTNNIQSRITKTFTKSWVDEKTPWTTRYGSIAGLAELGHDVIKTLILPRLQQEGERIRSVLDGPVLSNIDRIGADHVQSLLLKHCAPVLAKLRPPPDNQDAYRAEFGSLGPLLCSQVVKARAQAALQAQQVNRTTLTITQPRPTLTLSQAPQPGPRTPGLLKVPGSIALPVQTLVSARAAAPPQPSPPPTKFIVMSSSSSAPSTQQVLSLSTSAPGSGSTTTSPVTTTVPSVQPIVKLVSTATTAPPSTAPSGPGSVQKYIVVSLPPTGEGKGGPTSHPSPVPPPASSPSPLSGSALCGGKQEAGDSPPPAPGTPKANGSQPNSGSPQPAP

[12] = molecular target: Glutathione hydrolase 7 (Homo sapiens) (UniProt Q9UJ14); test: Binding affinity to Ggt7 (unknown origin) at 200 uM preincubated for 2 hrs followed by pronase addition and measured after 30 mins by coomassie blue staining based SDS-PAGE gel analysis
[13] = molecular target: SWI/SNF-related matrix-associated actin-dependent regulator of chromatin subfamily D member 2 (Homo sapiens) (UniProt Q92925); test: Binding affinity to Smarcd2 (unknown origin) at 200 uM preincubated for 2 hrs followed by pronase addition and measured after 30 mins by coomassie blue staining based SDS-PAGE gel analysis
Sequence of SWI/SNF-related matrix-associated actin-dependent regulator of chromatin subfamily D member 2 (Homo sapiens) (Q92925 whole entry): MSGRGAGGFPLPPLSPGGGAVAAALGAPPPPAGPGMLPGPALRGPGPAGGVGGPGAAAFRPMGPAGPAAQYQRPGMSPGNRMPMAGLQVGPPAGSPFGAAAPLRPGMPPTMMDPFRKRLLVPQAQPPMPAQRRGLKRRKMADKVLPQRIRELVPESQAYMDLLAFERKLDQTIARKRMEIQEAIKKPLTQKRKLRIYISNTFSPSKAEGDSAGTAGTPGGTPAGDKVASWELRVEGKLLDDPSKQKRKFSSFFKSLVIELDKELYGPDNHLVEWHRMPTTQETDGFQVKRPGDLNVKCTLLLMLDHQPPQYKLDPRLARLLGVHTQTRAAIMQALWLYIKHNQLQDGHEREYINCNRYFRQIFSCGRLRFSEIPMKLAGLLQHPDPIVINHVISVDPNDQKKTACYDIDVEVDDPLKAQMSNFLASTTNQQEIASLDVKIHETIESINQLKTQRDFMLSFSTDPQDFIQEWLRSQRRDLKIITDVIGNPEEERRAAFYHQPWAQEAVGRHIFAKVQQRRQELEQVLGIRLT

[14] = molecular target: Tropomyosin alpha-3 chain (Homo sapiens) (UniProt P06753); test: Binding affinity to Tpm3 (unknown origin) at 200 uM preincubated for 2 hrs followed by pronase addition and measured after 30 mins by coomassie blue staining based SDS-PAGE gel analysis
[15] = molecular target: U6 snRNA-associated Sm-like protein LSm8 (Homo sapiens) (UniProt O95777); test: Binding affinity to Lsm8 (unknown origin) at 200 uM preincubated for 2 hrs followed by pronase addition and measured after 30 mins by coomassie blue staining based SDS-PAGE gel analysis
Sequence of U6 snRNA-associated Sm-like protein LSm8 (Homo sapiens) (O95777 whole entry): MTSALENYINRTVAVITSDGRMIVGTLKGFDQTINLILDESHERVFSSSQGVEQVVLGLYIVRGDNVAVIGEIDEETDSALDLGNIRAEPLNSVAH

Homo sapiens = species: Homo sapiens; test: Binding affinity to Wdr95 (unknown origin) at 200 uM preincubated for 2 hrs followed by pronase addition and measured after 30 mins by coomassie blue staining based SDS-PAGE gel analysis
[16] = molecular target: Rho-related GTP-binding protein RhoB (Homo sapiens) (UniProt P62745); test: Binding affinity to RHOB (unknown origin) at 200 uM preincubated for 2 hrs followed by pronase addition and measured after 30 mins by coomassie blue staining based SDS-PAGE gel analysis
Sequence of Rho-related GTP-binding protein RhoB (Homo sapiens) (P62745 whole entry): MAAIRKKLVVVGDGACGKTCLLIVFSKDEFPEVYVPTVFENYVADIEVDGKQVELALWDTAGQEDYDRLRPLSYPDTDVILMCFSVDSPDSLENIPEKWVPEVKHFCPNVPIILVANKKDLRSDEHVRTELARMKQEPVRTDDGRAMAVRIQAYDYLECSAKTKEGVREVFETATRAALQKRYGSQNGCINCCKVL

[17] = molecular target: Lysosome-associated membrane glycoprotein 2 (Homo sapiens) (UniProt P13473); test: Binding affinity to Lamp2 (unknown origin) assessed as fold change in protein upregulation at 200 uM preincubated for 2 hrs followed by pronase addition and measured after 30 mins by coomassie blue staining based SDS-PAGE gel analysis
[18] = molecular target: Far upstream element-binding protein 2 (Homo sapiens) (UniProt Q92945); test: Binding affinity to KHSRP (unknown origin) assessed as fold change in protein upregulation at 200 uM preincubated for 2 hrs followed by pronase addition and measured after 30 mins by coomassie blue staining based SDS-PAGE gel analysis
[19] = molecular target: Chromosome transmission fidelity protein 18 homolog (Homo sapiens) (UniProt Q8WVB6); test: Binding affinity to Chtf18 (unknown origin) assessed as fold change in protein upregulation at 200 uM preincubated for 2 hrs followed by pronase addition and measured after 30 mins by coomassie blue staining based SDS-PAGE gel analysis
Sequence of Chromosome transmission fidelity protein 18 homolog (Homo sapiens) (Q8WVB6 whole entry): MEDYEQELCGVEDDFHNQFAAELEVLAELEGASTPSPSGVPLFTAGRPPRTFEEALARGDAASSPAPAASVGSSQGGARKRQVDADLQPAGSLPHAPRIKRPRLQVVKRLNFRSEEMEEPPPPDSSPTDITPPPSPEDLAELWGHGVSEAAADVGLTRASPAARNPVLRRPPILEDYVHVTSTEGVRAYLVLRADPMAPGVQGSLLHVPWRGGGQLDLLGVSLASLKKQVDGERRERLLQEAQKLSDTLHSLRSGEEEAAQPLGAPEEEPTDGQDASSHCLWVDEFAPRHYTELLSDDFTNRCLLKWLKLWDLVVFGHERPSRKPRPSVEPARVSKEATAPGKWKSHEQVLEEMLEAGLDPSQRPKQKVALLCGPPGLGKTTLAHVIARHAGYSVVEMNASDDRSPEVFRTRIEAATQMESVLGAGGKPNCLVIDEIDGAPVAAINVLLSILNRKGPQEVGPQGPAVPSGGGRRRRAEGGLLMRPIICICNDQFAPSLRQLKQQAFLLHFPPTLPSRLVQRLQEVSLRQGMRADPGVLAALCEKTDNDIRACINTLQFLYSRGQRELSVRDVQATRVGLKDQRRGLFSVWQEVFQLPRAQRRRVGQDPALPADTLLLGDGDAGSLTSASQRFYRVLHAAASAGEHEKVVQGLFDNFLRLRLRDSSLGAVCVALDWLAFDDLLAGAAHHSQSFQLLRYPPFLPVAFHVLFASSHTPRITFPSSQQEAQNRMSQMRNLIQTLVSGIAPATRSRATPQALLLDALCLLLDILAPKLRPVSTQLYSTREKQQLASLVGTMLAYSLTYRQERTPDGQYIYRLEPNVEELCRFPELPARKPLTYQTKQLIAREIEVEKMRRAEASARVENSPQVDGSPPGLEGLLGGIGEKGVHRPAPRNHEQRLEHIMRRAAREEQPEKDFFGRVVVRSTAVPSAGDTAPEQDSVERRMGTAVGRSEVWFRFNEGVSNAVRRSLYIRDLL

[20] = molecular target: Splicing factor 3A subunit 3 (Homo sapiens) (UniProt Q12874); test: Binding affinity to Sf3a3 (unknown origin) assessed as fold change in protein upregulation at 200 uM preincubated for 2 hrs followed by pronase addition and measured after 30 mins by coomassie blue staining based SDS-PAGE gel analysis
[21] = molecular target: Sorting nexin-3 (Homo sapiens) (UniProt O60493); test: Binding affinity to Snx3 (unknown origin) assessed as fold change in protein upregulation at 200 uM preincubated for 2 hrs followed by pronase addition and measured after 30 mins by coomassie blue staining based SDS-PAGE gel analysis
Sequence of Sorting nexin-3 (Homo sapiens) (O60493 whole entry): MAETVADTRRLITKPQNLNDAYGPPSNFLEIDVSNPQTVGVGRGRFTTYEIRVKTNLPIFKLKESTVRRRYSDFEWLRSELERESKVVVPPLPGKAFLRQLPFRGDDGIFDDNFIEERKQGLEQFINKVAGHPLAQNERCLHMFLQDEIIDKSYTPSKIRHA

[22] = molecular target: Tyrosine-protein phosphatase non-receptor type 2 (Homo sapiens) (UniProt P17706); test: Binding affinity to Ptpn2 (unknown origin) assessed as fold change in protein upregulation at 200 uM preincubated for 2 hrs followed by pronase addition and measured after 30 mins by coomassie blue staining based SDS-PAGE gel analysis
Sequence of Tyrosine-protein phosphatase non-receptor type 2 (Homo sapiens) (P17706 whole entry): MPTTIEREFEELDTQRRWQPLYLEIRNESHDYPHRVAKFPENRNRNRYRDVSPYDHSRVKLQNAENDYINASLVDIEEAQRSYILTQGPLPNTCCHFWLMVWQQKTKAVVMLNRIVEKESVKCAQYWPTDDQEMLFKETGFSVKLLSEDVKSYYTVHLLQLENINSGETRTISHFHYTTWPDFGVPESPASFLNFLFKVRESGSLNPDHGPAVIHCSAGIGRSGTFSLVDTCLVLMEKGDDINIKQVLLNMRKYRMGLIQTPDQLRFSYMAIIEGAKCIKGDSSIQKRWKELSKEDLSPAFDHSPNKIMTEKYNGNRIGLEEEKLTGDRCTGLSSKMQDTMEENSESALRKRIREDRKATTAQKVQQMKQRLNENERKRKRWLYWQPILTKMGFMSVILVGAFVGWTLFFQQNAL

[23] = molecular target: Prelamin-A/C (Homo sapiens) (UniProt P02545); test: Binding affinity to LMNA (unknown origin) assessed as fold change in protein upregulation at 200 uM preincubated for 2 hrs followed by pronase addition and measured after 30 mins by coomassie blue staining based SDS-PAGE gel analysis
Sequence of Prelamin-A/C (Homo sapiens) (P02545 whole entry): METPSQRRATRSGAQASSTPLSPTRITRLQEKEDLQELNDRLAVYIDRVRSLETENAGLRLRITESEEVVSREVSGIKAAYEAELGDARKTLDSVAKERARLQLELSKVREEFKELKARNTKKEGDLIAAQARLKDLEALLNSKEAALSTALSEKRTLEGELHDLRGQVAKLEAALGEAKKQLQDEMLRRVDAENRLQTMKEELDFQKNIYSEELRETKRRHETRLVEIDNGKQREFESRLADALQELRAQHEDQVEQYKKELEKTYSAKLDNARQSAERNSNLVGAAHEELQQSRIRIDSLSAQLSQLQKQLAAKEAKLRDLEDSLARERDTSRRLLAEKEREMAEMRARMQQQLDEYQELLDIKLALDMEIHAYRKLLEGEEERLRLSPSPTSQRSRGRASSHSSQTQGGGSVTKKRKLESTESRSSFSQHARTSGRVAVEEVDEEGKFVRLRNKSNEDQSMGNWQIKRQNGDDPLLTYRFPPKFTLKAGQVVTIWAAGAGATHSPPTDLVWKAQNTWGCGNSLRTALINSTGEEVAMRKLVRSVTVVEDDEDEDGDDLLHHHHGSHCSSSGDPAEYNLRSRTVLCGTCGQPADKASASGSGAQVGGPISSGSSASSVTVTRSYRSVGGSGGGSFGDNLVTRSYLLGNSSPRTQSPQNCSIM

[24] = molecular target: 10 kDa heat shock protein, mitochondrial (Homo sapiens) (UniProt P61604); test: Binding affinity to Hspe1 (unknown origin) assessed as fold change in protein upregulation at 200 uM preincubated for 2 hrs followed by pronase addition and measured after 30 mins by coomassie blue staining based SDS-PAGE gel analysis
[25] = molecular target: Stress-induced-phosphoprotein 1 (Homo sapiens) (UniProt P31948); test: Binding affinity to Stip1 (unknown origin) assessed as fold change in protein upregulation at 200 uM preincubated for 2 hrs followed by pronase addition and measured after 30 mins by coomassie blue staining based SDS-PAGE gel analysis
Lamin-B2 (Homo sapiens) = Lamin-B2 (Homo sapiens) (UniProt Q03252); test: Binding affinity to Lmnb2 (unknown origin) assessed as fold change in protein upregulation at 200 uM preincubated for 2 hrs followed by pronase addition and measured after 30 mins by coomassie blue staining based SDS-PAGE gel analysis
[26] = tested on: RNA polymerase II-associated factor 1 homolog; test: Binding affinity to Paf1 (unknown origin) at 200 uM preincubated for 2 hrs followed by pronase addition and measured after 30 mins by coomassie blue staining based SDS-PAGE gel analysis; conditions: Homo sapiens

SMILES: COc1c(O)nc2c(O)cccc2c1OC
- Activity (RAW264.7 [1]): Active
- Activity (RAW264.7 [2]): Active
- Activity (NRK-52E [3]): Active
- Activity (NRK-52E [4]): Active
- Activity (NRK-52E [5]): Dose-Dependent Effect
- Activity (NRK-52E [6]): Non-Toxic
- Activity (NRK-52E [7]): inactive
- Activity (NRK-52E [8]): inactive
- Activity [9]: Active
- Activity [10]: Active
- Activity [11]: Active
- Activity [12]: Active
- Activity [13]: Active
- Activity [14]: Active
- Activity [15]: Active
- Activity (Homo sapiens): Active
- Activity [16]: Active
- fold change (FC) [17]: 2.42
- fold change (FC) [18]: 2.19
- fold change (FC) [19]: 2.05
- fold change (FC) [20]: 1.8
- fold change (FC) [21]: 1.67
- fold change (FC) [22]: 1.57
- fold change (FC) [23]: 1.34
- fold change (FC) [24]: 1.34
- fold change (FC) [25]: 1.33
- fold change (FC) (Lamin-B2 (Homo sapiens)): 1.24
- Activity [26]: Active
